Data on 1 compound can be found in patent US7102000B2, “Heterocyclic amide derivatives for the treatment of diabetes and other diseases” (Incyte San Diego Inc., priority 2002, dated 2006).

Each structure is given as a SMILES string.

One experiment relates to KKA^y mice. The experiment in a line: Oral treatment of type 2 diabetes in KKA^y mice (serum glucose, triglyceride, cholesterol). In kind it is in vivo, mouse. The following applies: KKA^y mice, oral once daily, vs control mice, FIGS. 2a–d. An excerpt: The procedure for this in-vivo assay for anti-diabetes activity was described in detail by Iwatsuka, et al. (1970 General Survey of Diabetic Features of Yellow KK Mice. Endocrinol. Japon. 17: 23–35, incorporated herein in its entirety by reference).
Experimental Procedures: Six to eight week-old male KKA^y mice (obtained from Jackson Labs of Bar Harbord, Me.) were housed in a fixed 12–12-hr artificial light-dark cycle, and maintained on a standard rodent diet provided ad libitum. Animals were allowed two days to acclimate in this experimental environment prior to the initiation of the study.
Prior to initiation of treatment with the compounds of the invention, the animals were bled from the tail vein (100–200 μL of whole blood) and serum levels of glucose and triglycerides were measured in duplicate (Trinder kits; Sigma, St. Louis, Mo.). Based on these initial measures, animals were sorted into groups with approximately the same average serum glucose levels. Once sorted, the animals were housed one per cage and provided rodent diet ad libitum. Unless otherwise indicated, compounds were suspended in sesame oil, and administered by oral gavage once daily to animals in a volume of 3 ml/kg/dose.
Treatment Group A (n=5/group): (See Results in FIG. 2a) • 1) KKA^y vehicle control (sesame oil) • 2) Compound 1 (3 mg/kg) • 3) Compound 1 (10 mg/kg) • 4) Compound 2 (3 mg/kg) • 5) Compound 2 (10 mg/kg)
Treatment Group B (n=6/group): (See Results in FIG. 2b) • 1) KKA^y vehicle control (sesame oil) • 2) Compound 11 (15 mg/kg)
Treatment Group C (n=6/group): (See Results in FIG. 2c) • 1) KKA^y vehicle control (sesame oil) • 2) Compound 13 (15 mg/kg)
Treatment Group D (n=6/group): (See Results in FIG. 2d) • 1) KKA^y vehicle control (CMC) • 2) Compound 25 (3 mg/kg, CMC) Compound 25 was suspended in a solution of carboxymethyl cellulose (CMC; 1% carboxy methyl cellulose in H2O, with 10% polyethelene glycol 400), and administered to animals in a volume of 5 ml/kg/dose.
Treatment Group E (n=5/group): (See Results in FIG. 2e) • 1) KKA^y vehicle control (10% HPβCD) • 2) Compound 25 (1 mg/kg) • 3) Compound 25 (3 mg/kg) • 4) Compound 25 (10 mg/kg) Compound 25 was dissolved in a 10% hydroxy propyl beta cyclodextrin solution, and administered to animals in a volume of 10 ml/kg/dose.
Serum glucose, triglyceride and/or cholesterol levels were measured in duplicate. The blood is kept at room temperature to allow coagulation, after which the serum is separated and assayed for glucose, triglyceride and/or cholesterol levels. As shown in FIGS. 2a–2d all of the compounds tested reduced serum glucose and triglyceride levels, some with doses as low as 3 mg/kg when administered once a day.

Experiment [1] concerns THP-1 cells differentiated into macrophages. The experiment in a line: Cholesterol efflux assay from macrophage foam cells. In kind it is cell-based. Conditions: 1 μM, 24 hr, with 10 μg/ml ApoA-I, compared to non treated cells, FIG. 4. As for the experimental part:
Cholesterol efflux from macrophage foam cells was assayed as described by Sparrow. et al, J. Biol. Chem.,2002, 277, 10021–10027, which is encorporated herein in its entirety by this reference. THP-1 cells obtained from ATCC (Manassas, VI), were cultured in RPMI medium (Sigma, St-Louis, Mo.), containing 10% fetal calf serum (Sigma, St-Louis, Mo.), 0.05 μM 2-mercaptoethanol, 1 mM sodium pyruvate, 2 mM L-glutamine, 100 units/ml penicillin, […] streptomycin and 0.25 μg/ml amphotericin B obtained from Sigma (St-Louis, Mo.). The THP-1 cells were differentiated into macrophages in 24 well tissue culture dishes at a density of 0.5 million cells/well by incubation in the same medium plus 100 nM tetradecanoyl phorbol acetate (Sigma, St-Louis, Mo.), for 3 days.
After differentiation into macrophages, the cells were tested for cholesterol efflux as induced by compound 2 of the invention. Cells were labeled by incubation for 24 hr in fresh growth medium containing [3 H]-cholesterol (10 μCi/ml) (PerkinElmer, Boston, Mass.), and 50 μg/ml acetylated-LDL (Frederick, Md.) and 1% Fetal bovine serum (Sigma, St-Louis, Mo.). […] Media were briefly centrifuged to remove non-adherent cells, and then aliquots of both the supernatant and the dissolved cells were counted by liquid scintillation spectrometry to determine radioactivity.
Cholesterol efflux is expressed as a percentage, calculated as […]

In experiment [2] the test system is diet-induced hypercholesterolemic Sprague Dawley rats. Description: Diet-induced hypercholesterolemia in wild type Sprague Dawley rats (total, HDL, LDL cholesterol). Format: in vivo, rat. The following applies: Sprague Dawley rats on atherogenic diet, oral once daily, day 5, FIGS. 5a–c. An excerpt: Experimental Procedure: Six week-old male Sprague Dawley rats (obtained from Harlan of San Diego, Calif.) were housed in a fixed 12—12-hr artificial light-dark cycle, and maintained on a high cholesterol atherogenic diet (Paigen's Diet, obtained from Research Diet Inc. of New Brounswick, N.J.) was provided ad libitum. Animals were allowed six days to acclimate in this experimental environment prior to the initiation of the study.
Prior to initiation of treatment, the animals were bled from the tail vein (100–200 μL of whole blood) and serum levels of cholesterol were measured in duplicate (Cholesterol Infinity kits; Sigma, St. Louis, Mo.). Based on these initial measures, animals were sorted into groups with approximately the same average total cholesterol levels. Once sorted, the animals were housed three per cage and maintained on Paigen's diet ad libitum. All compounds to be tested were suspended in sesame oil and administered in a final volume of 3 ml/kg. Drug is administered by oral gavage once daily at the beginning of the artificial light cycle. To obtain a base line for lipid measurement, a control group maintained on standart rodent diet is included (lean control).
Treatment Group A (n=6/group): (See Results in FIG. 5a) • 1) Lean control (Sesame Oil) • 2) Control • 3) Compound 2 (0.3 mg/kg) • 4) Compound 2 (1 mg/kg) • 5) Compound 2 (3 mg/kg)
Treatment Group B (n=6/group): (See Results in FIG. 5b) • 1) Lean control (Sesame Oil) • 2) Control • 3) Compound 6 (3 mg/kg)
Treatment Group C (n=6/group): (See Results in FIG. 5c) • 1) Lean control (10% HPβCD) • 2) Control • 3) Compound 25 (1 mg/kg) • 4) Compound 25 (3 mg/kg) • 5) Compound 25 (10 mg/kg) • 6) Compound 25 (15 mg/kg) • The compounds were dissolved in a 10% hydroxy propyl beta cyclodextrin solution, and administered to animals in a volume of 10 ml/kg/dose.
To monitor the effect of the tested compounds, animals were bled from the tail vein at the end of the dark cycle on days 0 (for sorting) and day 5 of the treatment period. Fed serum cholesterol levels were measured in duplicate. The blood is kept at room temperature to allow coagulation, after which the serum is separated and assayed for total cholesterol (Infinity reagent, Sigma), HDL cholesterol (using HDL precipitating reagent and infinity reagent, Sigma) and LDL cholesterol (EZLDL kit, Sigma). As shown in FIGS. 5a–c, all compounds tested show significant reduction in total and LDL cholesterol levels and a significant increase in HDL cholesterol levels compared to high fat fed control animals.

Consider `CCN1C(=O)CC(C)(C)c2cc(C)c(-c3cc(/C=C4\SC(=O)NC4=O)ccc3OC(F)(F)F)cc21` [Compound 2, 5-[3-(1-Ethyl-4,4,6-trimethyl-2-oxo-1,2,3,4-tetrahydro-quinolin-7-yl)-4-trifluoromethoxy-benzylidene]-thiazolidine-2,4-dione], for which, in the experiment on KKA^y mice, the serum glucose level entry is “decrease” and the serum triglyceride level result is given as “decrease”. Also, the cholesterol efflux entry in experiment [1] is recorded as “increases”. Further, in experiment [2], the HDL cholesterol entry is “increasing”, the LDL cholesterol result was “decrease” and the total cholesterol result is “decrease”.
